PubChem BioAssay (NCI)
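Values below derive from 48-hour exposures of cells grown in 96-well plates, with endpoints linearly interpolated between the two concentrations bracketing the appropriate inhibition level. The concentration for full growth arrest is given as TGI.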

What was measured:
Experiment in all cases: NCI tumour cell line growth inhibition, 48 h
[1] = test system: 786-0 renal
[2] = test system: A498 renal
[3] = test system: A549 NSCLC
[4] = test system: ACHN renal
[5] = test system: CCRF-CEM leukemia
[6] = test system: COLO 205 colon
[7] = test system: DLD-1 colon
[8] = test system: EKVX NSCLC
[9] = test system: HCC-2998 colon
[10] = test system: HCT-116 colon
[11] = test system: HCT-15 colon
[12] = test system: HL-60(TB) leukemia
[13] = test system: HOP-18 NSCLC
[14] = test system: HOP-62 NSCLC
[15] = test system: HOP-92 NSCLC
[16] = test system: HT29 colon
[17] = test system: K-562 leukemia
[18] = test system: KM12 colon
[19] = test system: KM20L2 colon
[20] = test system: LOX IMVI melanoma
[21] = test system: LXFL 529 NSCLC
[22] = test system: M14 melanoma
[23] = test system: M19-MEL melanoma
[24] = test system: MALME-3M melanoma
[25] = test system: MOLT-4 leukemia
[26] = test system: NCI-H226 lung
[27] = test system: NCI-H23 lung
[28] = test system: NCI-H460 lung
[29] = test system: NCI-H522 lung
[30] = test system: OVCAR-3 ovarian
[31] = test system: OVCAR-4 ovarian
[32] = test system: OVCAR-5 ovarian
[33] = test system: OVCAR-8 ovarian
[34] = test system: RPMI-8226 leukemia
[35] = test system: RXF 393 renal
[36] = test system: RXF-631 renal
[37] = test system: SF-268 CNS
[38] = test system: SF-295 CNS
[39] = test system: SF-539 CNS
[40] = test system: SK-MEL-2 melanoma
[41] = test system: SK-MEL-28 melanoma
[42] = test system: SK-OV-3 ovarian
[43] = test system: SN12C renal
[44] = test system: SNB-19 CNS
[45] = test system: SNB-75 CNS
[46] = test system: SW-620 colon
[47] = test system: TK-10 renal
[48] = test system: U251 CNS
[49] = test system: UACC-257 melanoma
[50] = test system: UO-31 renal
[51] = test system: CAKI-1 renal
[52] = test system: DMS 114 small cell lung
[53] = test system: DMS 273 small cell lung
[54] = test system: IGROV1 ovarian
[55] = test system: SK-MEL-5 melanoma
[56] = test system: SNB-78 CNS
[57] = test system: SR leukemia
[58] = test system: UACC-62 melanoma
[59] = test system: XF 498 CNS

For `Nc1ccc(C(=O)CC2(O)C(=O)Nc3c(Cl)cc(Cl)cc32)cc1` (stereo not drawn), the TGI [1] was greater than 100 µM, the TGI [2] was greater than 100 µM and the TGI [3] was greater than 100 µM. It also gave a TGI [4] greater than 100 µM, a TGI [5] greater than 100 µM and a TGI [6] greater than 100 µM. For the same molecule, the TGI [7] was greater than 100 µM, the TGI [8] was greater than 100 µM and the TGI [9] was greater than 100 µM. For the same molecule, the TGI [10] was greater than 100 µM, the TGI [11] was greater than 100 µM and the TGI [12] was 78.5 µM. For the same molecule, the TGI [13] was greater than 100 µM, the TGI [14] was greater than 100 µM and the TGI [15] was greater than 100 µM. For the same molecule, the TGI [16] was greater than 100 µM, the TGI [17] was greater than 100 µM and the TGI [18] was greater than 100 µM. The TGI [19] was greater than 100 µM, the TGI [20] was greater than 100 µM and the TGI [21] was greater than 100 µM. It also gave a TGI [22] greater than 100 µM, a TGI [23] greater than 100 µM and a TGI [24] greater than 100 µM. For the same molecule, the TGI [25] was greater than 100 µM, the TGI [26] was greater than 100 µM and the TGI [27] was greater than 100 µM. It also gave a TGI [28] greater than 100 µM, a TGI [29] greater than 100 µM and a TGI [30] greater than 100 µM. It also gave a TGI [31] greater than 100 µM, a TGI [32] greater than 100 µM and a TGI [33] greater than 100 µM. For the same molecule, the TGI [34] was greater than 100 µM, the TGI [35] was greater than 100 µM and the TGI [36] was 79.8 µM. The TGI [37] was greater than 100 µM, the TGI [38] was greater than 100 µM and the TGI [39] was greater than 100 µM. It also gave a TGI [40] greater than 100 µM, a TGI [41] greater than 100 µM and a TGI [42] greater than 100 µM. It also gave a TGI [43] greater than 100 µM, a TGI [44] greater than 100 µM and a TGI [45] greater than 100 µM. The TGI [46] was 65.4 µM, the TGI [47] was greater than 100 µM and the TGI [48] was 95.7 µM. For the same molecule, the TGI [49] was greater than 100 µM and the TGI [50] was greater than 100 µM.
Work on `COc1ccc(N2C(=O)C3c4[nH]c5ccccc5c4C4CCCCCCC4C3C2=O)cc1` (stereo not drawn) yielded a TGI [1] of 8.29 µM, a TGI [2] of 52.3 µM and a TGI [3] of 22.8 µM. For the same molecule, the TGI [4] was 18.7 µM, the TGI [51] was 39.5 µM and the TGI [5] was 21.5 µM. For the same molecule, the TGI [6] was greater than 48.6 µM, the TGI [7] was greater than 43.4 µM and the TGI [52] was 28 µM. It also gave a TGI [53] of 18.6 µM, a TGI [8] of 41.4 µM and a TGI [9] greater than 100 µM. It also gave a TGI [10] of 15.3 µM, a TGI [11] of 27 µM and a TGI [12] of 74 µM. For the same molecule, the TGI [13] was 3.2 µM, the TGI [14] was 26 µM and the TGI [15] was 33.4 µM. The TGI [16] was greater than 100 µM, the TGI [54] was 59.1 µM and the TGI [17] was greater than 75.2 µM. The TGI [18] was greater than 100 µM, the TGI [19] was greater than 100 µM and the TGI [20] was 20.8 µM. The TGI [21] was 17.1 µM, the TGI [22] was 37.4 µM and the TGI [23] was greater than 80.3 µM. For the same molecule, the TGI [24] was 41.4 µM, the TGI [25] was 37.9 µM and the TGI [26] was 31.6 µM. The TGI [27] was 31.2 µM, the TGI [28] was 27.5 µM and the TGI [29] was 36.5 µM. It also gave a TGI [30] of 16.8 µM, a TGI [31] of 33.2 µM and a TGI [32] greater than 100 µM. It also gave a TGI [33] of 13 µM, a TGI [34] greater than 100 µM and a TGI [37] of 31.3 µM. The TGI [38] was 26 µM, the TGI [39] was 21.5 µM and the TGI [40] was greater than 69.8 µM. The TGI [41] was 42 µM, the TGI [55] was 61.9 µM and the TGI [42] was 33.2 µM. It also gave a TGI [43] of 14.9 µM, a TGI [44] of 28.1 µM and a TGI [45] of 27.8 µM. The TGI [56] was greater than 100 µM, the TGI [57] was greater than 21.3 µM and the TGI [46] was 34.1 µM. For the same molecule, the TGI [47] was 40.4 µM, the TGI [48] was 16.5 µM and the TGI [49] was greater than 100 µM. The TGI [58] was 39.2 µM, the TGI [50] was 44.1 µM and the TGI [59] was 25.7 µM.
In the case of `O=C1CCN2CCC(=O)c3c2c(cc2ccccc32)N1`, the TGI [1] is reported as greater than 100 µM, the TGI [2] is reported as greater than 100 µM and the TGI [3] is reported as greater than 100 µM. It also gave a TGI [4] greater than 100 µM, a TGI [51] greater than 100 µM and a TGI [5] greater than 100 µM. It also gave a TGI [6] greater than 100 µM, a TGI [7] greater than 100 µM and a TGI [52] greater than 100 µM. It also gave a TGI [53] greater than 100 µM, a TGI [8] greater than 100 µM and a TGI [9] greater than 100 µM. For the same molecule, the TGI [10] was greater than 100 µM, the TGI [11] was greater than 100 µM and the TGI [14] was greater than 100 µM. The TGI [16] was greater than 100 µM, the TGI [54] was greater than 100 µM and the TGI [17] was greater than 100 µM. It also gave a TGI [18] greater than 100 µM, a TGI [19] greater than 100 µM and a TGI [20] greater than 100 µM. The TGI [21] was greater than 100 µM, the TGI [22] was greater than 100 µM and the TGI [23] was greater than 100 µM. The TGI [24] was greater than 100 µM, the TGI [25] was greater than 100 µM and the TGI [26] was greater than 100 µM. For the same molecule, the TGI [28] was greater than 100 µM, the TGI [29] was greater than 100 µM and the TGI [30] was greater than 100 µM. It also gave a TGI [32] greater than 100 µM, a TGI [33] greater than 100 µM and a TGI [34] greater than 100 µM. The TGI [35] was greater than 100 µM, the TGI [37] was greater than 100 µM and the TGI [38] was greater than 100 µM. It also gave a TGI [39] greater than 100 µM, a TGI [40] greater than 100 µM and a TGI [55] greater than 100 µM. For the same molecule, the TGI [42] was greater than 100 µM, the TGI [43] was greater than 100 µM and the TGI [44] was greater than 100 µM. For the same molecule, the TGI [45] was greater than 100 µM, the TGI [56] was greater than 100 µM and the TGI [46] was greater than 100 µM. For the same molecule, the TGI [47] was greater than 100 µM, the TGI [48] was greater than 100 µM and the TGI [49] was greater than 100 µM. It also gave a TGI [58] greater than 100 µM, a TGI [50] greater than 100 µM and a TGI [59] of 93.5 µM.
In the case of `COC(=O)[C@]1(C)C(OC)=CC(=O)C2C1[C@H]1CCC[C@@H]21` (stereo partly drawn), the TGI [1] is reported as greater than 100 µM, the TGI [2] is reported as greater than 100 µM and the TGI [3] is reported as greater than 100 µM. The TGI [4] was greater than 100 µM, the TGI [51] was greater than 100 µM and the TGI [5] was greater than 100 µM. It also gave a TGI [6] greater than 100 µM, a TGI [7] greater than 100 µM and a TGI [52] greater than 100 µM. It also gave a TGI [8] greater than 100 µM, a TGI [9] greater than 100 µM and a TGI [10] greater than 100 µM. It also gave a TGI [11] greater than 100 µM, a TGI [12] greater than 100 µM and a TGI [13] greater than 100 µM. It also gave a TGI [14] greater than 100 µM, a TGI [15] greater than 100 µM and a TGI [16] greater than 100 µM. For the same molecule, the TGI [54] was greater than 100 µM, the TGI [17] was greater than 100 µM and the TGI [18] was greater than 100 µM. For the same molecule, the TGI [19] was greater than 100 µM, the TGI [20] was greater than 100 µM and the TGI [21] was greater than 100 µM. For the same molecule, the TGI [22] was greater than 100 µM, the TGI [23] was greater than 100 µM and the TGI [24] was greater than 100 µM. The TGI [25] was greater than 100 µM, the TGI [26] was greater than 100 µM and the TGI [27] was greater than 100 µM. The TGI [28] was greater than 100 µM, the TGI [29] was greater than 100 µM and the TGI [30] was greater than 100 µM. The TGI [32] was greater than 100 µM, the TGI [33] was greater than 100 µM and the TGI [34] was greater than 100 µM. It also gave a TGI [35] greater than 100 µM, a TGI [37] greater than 100 µM and a TGI [38] greater than 100 µM. It also gave a TGI [39] greater than 100 µM, a TGI [40] greater than 100 µM and a TGI [41] greater than 100 µM. The TGI [55] was greater than 100 µM, the TGI [42] was greater than 100 µM and the TGI [43] was greater than 100 µM. The TGI [44] was greater than 100 µM, the TGI [45] was greater than 100 µM and the TGI [56] was greater than 100 µM. It also gave a TGI [57] greater than 100 µM, a TGI [47] greater than 100 µM and a TGI [48] greater than 100 µM. The TGI [49] was greater than 100 µM, the TGI [58] was greater than 100 µM and the TGI [50] was greater than 100 µM. The TGI [59] was greater than 100 µM.
